Among the data in ChEMBL document CHEMBL6087451, “Design, Synthesis, and Biological Evaluation of 2-Arylaminopyrimidine Derivatives as Dual Cathepsin L and JAK Inhibitors for the Treatment of Acute Lung Injury” (J Med Chem, 2025) are IC50 values, retold here.

Experiment [1] deals with T1, Tyrosine-protein kinase JAK3 (Homo sapiens, UniProt P52333).
T1 sequence (P52333 whole entry): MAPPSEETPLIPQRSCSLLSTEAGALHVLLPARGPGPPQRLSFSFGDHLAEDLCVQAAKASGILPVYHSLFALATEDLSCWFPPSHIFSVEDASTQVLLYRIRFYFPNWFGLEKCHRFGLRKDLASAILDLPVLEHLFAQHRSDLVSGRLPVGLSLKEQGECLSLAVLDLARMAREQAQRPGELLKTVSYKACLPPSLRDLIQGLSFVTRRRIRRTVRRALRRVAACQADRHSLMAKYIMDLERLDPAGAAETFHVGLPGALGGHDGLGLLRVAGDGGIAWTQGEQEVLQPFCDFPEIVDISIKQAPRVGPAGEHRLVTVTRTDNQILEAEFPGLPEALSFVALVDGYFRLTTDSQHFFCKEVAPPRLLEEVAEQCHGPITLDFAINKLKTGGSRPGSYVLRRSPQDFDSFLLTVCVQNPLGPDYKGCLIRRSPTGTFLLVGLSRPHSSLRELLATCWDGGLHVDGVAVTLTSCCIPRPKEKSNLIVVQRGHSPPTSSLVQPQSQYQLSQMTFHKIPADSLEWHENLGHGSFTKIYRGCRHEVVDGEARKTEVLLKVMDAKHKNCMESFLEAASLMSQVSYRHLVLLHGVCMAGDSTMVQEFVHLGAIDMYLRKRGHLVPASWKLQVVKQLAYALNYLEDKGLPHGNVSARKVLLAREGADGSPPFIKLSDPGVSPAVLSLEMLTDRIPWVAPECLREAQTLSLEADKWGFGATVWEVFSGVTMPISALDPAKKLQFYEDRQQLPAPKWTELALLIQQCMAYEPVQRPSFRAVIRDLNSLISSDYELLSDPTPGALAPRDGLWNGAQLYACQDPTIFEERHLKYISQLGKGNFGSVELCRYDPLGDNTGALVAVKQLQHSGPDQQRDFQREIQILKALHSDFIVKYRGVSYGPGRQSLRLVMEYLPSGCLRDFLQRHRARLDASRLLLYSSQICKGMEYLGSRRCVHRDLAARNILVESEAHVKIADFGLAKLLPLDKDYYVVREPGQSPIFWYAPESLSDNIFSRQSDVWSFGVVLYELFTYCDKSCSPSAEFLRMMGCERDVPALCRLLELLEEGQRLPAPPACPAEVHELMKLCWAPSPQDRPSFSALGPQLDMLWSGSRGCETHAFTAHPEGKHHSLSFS
Nature of the experiment: Inhibition of JAK3 (unknown origin) using TK-biotin as substrate incubated for 30 mins in presence of ATP by HTRF assay.

In experiment [2] the target is Tyrosine-protein kinase JAK2 (Homo sapiens, UniProt O60674). The experiment can be described thus: Inhibition of JAK2 (unknown origin) using TK-biotin as substrate incubated for 30 mins in presence of ATP by HTRF assay.
Sequence of Tyrosine-protein kinase JAK2 (O60674 whole entry): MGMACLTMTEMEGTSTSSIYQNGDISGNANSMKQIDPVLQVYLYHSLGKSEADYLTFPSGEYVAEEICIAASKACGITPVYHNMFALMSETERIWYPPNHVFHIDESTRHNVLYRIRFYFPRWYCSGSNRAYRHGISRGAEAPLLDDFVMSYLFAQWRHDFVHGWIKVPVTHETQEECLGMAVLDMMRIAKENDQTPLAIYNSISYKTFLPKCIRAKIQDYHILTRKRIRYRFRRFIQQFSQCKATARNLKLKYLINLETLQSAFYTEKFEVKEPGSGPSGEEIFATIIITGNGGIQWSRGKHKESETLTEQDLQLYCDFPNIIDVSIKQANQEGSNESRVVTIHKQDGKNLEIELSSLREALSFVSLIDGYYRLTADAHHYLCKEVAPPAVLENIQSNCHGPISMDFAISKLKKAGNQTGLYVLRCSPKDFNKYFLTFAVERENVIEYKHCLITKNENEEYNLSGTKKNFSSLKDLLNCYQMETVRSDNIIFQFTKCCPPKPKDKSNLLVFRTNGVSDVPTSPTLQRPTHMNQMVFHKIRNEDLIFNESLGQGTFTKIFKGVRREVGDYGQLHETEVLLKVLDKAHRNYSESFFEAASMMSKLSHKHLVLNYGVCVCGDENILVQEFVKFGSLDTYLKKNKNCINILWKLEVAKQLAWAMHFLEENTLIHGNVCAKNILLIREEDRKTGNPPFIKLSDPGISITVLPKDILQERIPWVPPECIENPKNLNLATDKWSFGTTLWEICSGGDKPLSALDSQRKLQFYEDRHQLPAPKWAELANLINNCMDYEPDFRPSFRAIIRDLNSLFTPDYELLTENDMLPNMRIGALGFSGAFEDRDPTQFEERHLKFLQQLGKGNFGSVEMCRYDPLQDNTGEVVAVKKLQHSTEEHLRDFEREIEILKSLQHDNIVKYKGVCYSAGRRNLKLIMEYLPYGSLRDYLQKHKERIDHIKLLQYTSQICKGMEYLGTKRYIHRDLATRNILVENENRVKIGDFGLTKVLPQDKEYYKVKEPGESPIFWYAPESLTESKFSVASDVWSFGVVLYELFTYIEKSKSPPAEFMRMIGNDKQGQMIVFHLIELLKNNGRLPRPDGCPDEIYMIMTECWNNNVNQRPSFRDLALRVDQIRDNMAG

For `Cl.Cn1cc(-c2ccnc(Nc3cccc(N)c3)n2)c2ccccc21`, the half-inhibitory concentration (IC50) worked out at 27.3 nM in experiment [1] and 5.25 nM in experiment [2].
